According to patent publication US11530237B2, “Compositions and methods for treating CNS disorders” (Sage Therapeutics, Inc., priority 2014, dated 2022):
pIC50: −log10 of the molar value.

biological target: [35S]-TBPS binding, rat brain cortical membranes; experiment: Steroid inhibition of TBPS binding ([35S]-TBPS radioligand displacement); details: 3 nM [35S]-TBPS, 5 μM GABA
Protocol: TBPS binding assays using rat brain cortical membranes in the presence of 5 μM GABA has been described (Gee et al, J. Pharmacol. Exp. Then 1987, 241, 346-353; Hawkinson et al, Mol. Pharmacol. 1994, 46, 977-985; Lewin, A. H et al., Mol. Pharmacol. 1989, 35, 189-194).
Briefly, cortices are rapidly removed following decapitation of carbon dioxide-anesthetized Sprague-Dawley rats (200-250 g). The cortices are homogenized in 10 volumes of […] using a glass/teflon homogenizer and centrifuged at 1500×g for 10 min at 4° C. The resultant supernatants are centrifuged at 10,000×g for 20 min at 4° C. to obtain the P2 pellets. The P2 pellets are resuspended in 200 mM NaCl/50 mM Na—K phosphate pH 7.4 buffer and centrifuged at 10,000×g for 10 min at 4° C. This washing procedure is repeated twice and the pellets are resuspended in 10 volumes of buffer. Aliquots (100 μL) of the membrane suspensions are incubated with 3 nM [^35S]-TBPS and 5 μL aliquots of test drug dissolved in dimethyl sulfoxide (DMSO) (final 0.5%) in the presence of 5 μM GABA. The incubation is brought to a final volume of 1.0 mL with buffer. […] Following a 90 min incubation at room temp, the assays are terminated by filtration through glass fiber filters (Schleicher and Schuell No. 32) using a cell harvester (Braudel) and rinsed three times with ice-cold buffer. Filter bound radioactivity is measured by liquid scintillation spectrometry. Non-linear curve fitting of the overall data for each drug averaged for each concentration is done using Prism (GraphPad).
Various compounds are or can be screened to determine their potential as modulators of [^35S]-TBPS binding in vitro. These assays are or can be performed in accordance with the above discussed procedures.

| Structure (SMILES) | pIC50 |
| --- | --- |
| CC(C(=O)[C@H]1CC[C@H]2[C@@H]3CC[C@@H]4C[C@](C)(O)CC[C@]4(C)[C@H]3CC[C@]12C)n1ccnn1 (stereo in doubt) [Compound 58, (R)-1-((3R,5R,8R,9S,10S,13S,14S,17S)-3-hydroxy-3,10,13-trimethylhexadecahydro-1H-cyclopenta[a]phenanthren-17-yl)-2-(1H-1,2,3-triazol-1-yl)propan-1-one] | < 6.30 |
| CC(C(=O)[C@H]1CC[C@H]2[C@@H]3CC[C@@H]4C[C@](C)(O)CC[C@]4(C)[C@H]3CC[C@]12C)n1nc2ccccc2n1 (stereo in doubt) [Compound 61, (S)-2-(2H-benzo[d][1,2,3]triazol-2-yl)-1-((3R,5R,8R,9S,10S,13S,14S,17S)-3-hydroxy-3,10,13-trimethylhexadecahydro-1H-cyclopenta[a]phenanthren-17-yl)propan-1-one] | 6.30 to 7.00 |
| CC(C(=O)[C@H]1CC[C@H]2[C@@H]3CC[C@@H]4C[C@](C)(O)CC[C@]4(C)[C@H]3CC[C@]12C)n1nnc2ccccc21 (stereo in doubt) [Compound 63, (S)-2-(1H-benzo[d][1,2,3]triazol-1-yl)-1-((3R,5R,8R,9S,10S,13S,14S,17S)-3-hydroxy-3,10,13-trimethylhexadecahydro-1H-cyclopenta[a]phenanthren-17-yl)propan-1-one] | 7.30 to 8.00 |
| C[C@@]1(O)CC[C@@]2(C)C(CC[C@H]3[C@@H]4CC[C@H](C(=O)Cn5nc6ccc(S(C)(=O)=O)cc6n5)[C@@]4(C)CC[C@@H]32)C1 (stereo in doubt) [Compound 104, 1-((3R,5R,8R,9S,10S,13S,14S,17S)-3-hydroxy-3,10,13-trimethylhexadecahydro-1H-cyclopenta[a]phenanthren-17-yl)-2-(5-(methylsulfonyl)-2H-benzo[d][1,2,3]triazol-2-yl)ethanone] | > 8.00 |
| C[C@@]1(O)CC[C@@]2(C)[C@H](CC[C@@H]3[C@@H]2CC[C@]2(C)[C@@H](C(=O)Cn4cc(C#N)cn4)CC[C@@H]32)C1 [Compound 10, 1-(2-((3R,5R,8R,9S,10S,13S,14S,17S)-3-hydroxy-3,10,13-trimethylhexadecahydro-1H-cyclopenta[a]phenanthren-17-yl)-2-oxoethyl)-1H-pyrazole-4-carbonitrile] | > 8.00 |
| C[C@@]1(O)CC[C@@]2(C)[C@H](CC[C@@H]3[C@@H]2CC[C@]2(C)[C@@H](C(=O)CN4CCOCC4)CC[C@@H]32)C1 [Compound 43, 1-((3R,5R,8R,9S,10S,13S,14S,17S)-3-hydroxy-3,10,13-trimethylhexadecahydro-1H-cyclopenta[a]phenanthren-17-yl)-2-morpholinoethanone] | 6.30 to 7.00 |
| C[C@@H](C(=O)[C@H]1CC[C@H]2[C@@H]3CC[C@@H]4C[C@](C)(O)CC[C@]4(C)[C@H]3CC[C@]12C)n1nccn1 [Compound 57, (S)-1-((3R,5R,8R,9S,10S,13S,14S,17S)-3-hydroxy-3,10,13-trimethylhexadecahydro-1H-cyclopenta[a]phenanthren-17-yl)-2-(2H-1,2,3-triazol-2-yl)propan-1-one] | 6.30 to 7.00 |
| C[C@@H](C(=O)[C@H]1CC[C@H]2[C@@H]3CC[C@@H]4C[C@](C)(O)CC[C@]4(C)[C@H]3CC[C@]12C)n1ccnn1 [Compound 59, (S)-1-((3R,5R,8R,9S,10S,13S,14S,17S)-3-hydroxy-3,10,13-trimethylhexadecahydro-1H-cyclopenta[a]phenanthren-17-yl)-2-(1H-1,2,3-triazol-1-yl)propan-1-one] | 6.30 to 7.00 |
| C[C@H](C(=O)[C@H]1CC[C@H]2[C@@H]3CC[C@@H]4C[C@](C)(O)CC[C@]4(C)[C@H]3CC[C@]12C)n1nc2ccccc2n1 [Compound 60, (R)-2-(2H-benzo[d][1,2,3]triazol-2-yl)-1-((3R,5R,8R,9S,10S,13S,14S,17S)-3-hydroxy-3,10,13-trimethylhexadecahydro-1H-cyclopenta[a]phenanthren-17-yl)propan-1-one] | 7.30 to 8.00 |
| C[C@H](C(=O)[C@H]1CC[C@H]2[C@@H]3CC[C@@H]4C[C@](C)(O)CC[C@]4(C)[C@H]3CC[C@]12C)n1nnc2ccccc21 [Compound 62, (R)-2-(1H-benzo[d][1,2,3]triazol-1-yl)-1-((3R,5R,8R,9S,10S,13S,14S,17S)-3-hydroxy-3,10,13-trimethylhexadecahydro-1H-cyclopenta[a]phenanthren-17-yl)propan-1-one] | 6.30 to 7.00 |
| C[C@H](C(=O)[C@H]1CC[C@H]2[C@@H]3CC[C@@H]4C[C@](C)(O)CC[C@]4(C)[C@H]3CC[C@]12C)n1cc(C#N)cn1 [Compound 72, 1-((R)-1-((3R,5R, 8R, 9S, 10S, 13S, 14S, 17S)-3-hydroxy-3,10,13-trimethylhexadecahydro-1H-cyclopenta[a]phenanthren-17-yl)-1-oxopropan-2-yl)-1H-pyrazole-4-carbonitrile] | 7.30 to 8.00 |
| C[C@@H](C(=O)[C@H]1CC[C@H]2[C@@H]3CC[C@@H]4C[C@](C)(O)CC[C@]4(C)[C@H]3CC[C@]12C)n1cc(C#N)cn1 [Compound 73, 1-((S)-1-((3R,5R,8R,9S,10S,13S,14S,17S)-3-hydroxy-3,10,13-trimethylhexadecahydro-1H-cyclopenta[a]phenanthren-17-yl)-1-oxopropan-2-yl)-1H-pyrazole-4-carbonitrile] | 7.30 to 8.00 |
| C[C@H](C(=O)[C@H]1CC[C@H]2[C@@H]3CC[C@H]4C[C@](C)(O)CC[C@]4(C)[C@H]3CC[C@]12C)n1cc(C#N)cn1 [Compound 80, 1-((R)-1-((3R,5S,8R,9S,10S,13S,14S,17S)-3-hydroxy-3,10,13-trimethylhexadecahydro-1H-cyclopenta[a]phenanthren-17-yl)-1-oxopropan-2-yl)-1H-pyrazole-4-carbonitrile] | 6.30 to 7.00 |
| C[C@@H](C(=O)[C@H]1CC[C@H]2[C@@H]3CC[C@H]4C[C@](C)(O)CC[C@]4(C)[C@H]3CC[C@]12C)n1cc(C#N)cn1 [Compound 81, 1-((S)-1-((3R,5S,8R,9S,10S,13S,14S,17S)-3-hydroxy-3,10,13-trimethylhexadecahydro-1H-cyclopenta[a]phenanthren-17-yl)-1-oxopropan-2-yl)-1H-pyrazole-4-carbonitrile] | 7.30 to 8.00 |
| CN(C)C(=O)c1cnn(CC(=O)[C@H]2CC[C@H]3[C@@H]4CC[C@@H]5C[C@](C)(O)CC[C@]5(C)[C@H]4CC[C@]23C)c1 [Compound 86] | > 8.00 |
| C[C@H](C(=O)[C@H]1CC[C@H]2[C@@H]3CC[C@H]4C[C@](C)(O)CC[C@]4(C)[C@H]3CC[C@]12C)n1nccn1 [Compound 90, (R)-1-((3R,5S,8R,9S,10S,13S,14S,17S)-3-hydroxy-3,10,13-trimethylhexadecahydro-1H-cyclopenta[a]phenanthren-17-yl)-2-(2H-1,2,3-triazol-2-yl)propan-1-one] | < 6.30 |
| C[C@@H](C(=O)[C@H]1CC[C@H]2[C@@H]3CC[C@H]4C[C@](C)(O)CC[C@]4(C)[C@H]3CC[C@]12C)n1nccn1 [Compound 91, (S)-1-((3R,5S,8R,9S,10S,13S,14S,17S)-3-hydroxy-3,10,13-trimethylhexadecahydro-1H-cyclopenta[a]phenanthren-17-yl)-2-(2H-1,2,3-triazol-2-yl)propan-1-one] | 7.00 to 7.30 |
| C[C@H](C(=O)[C@H]1CC[C@H]2[C@@H]3CC[C@H]4C[C@](C)(O)CC[C@]4(C)[C@H]3CC[C@]12C)n1ccnn1 [Compound 92, (R)-1-((3R,5S,8R,9S,10S,13S,14S,17S)-3-hydroxy-3,10,13-trimethylhexadecahydro-1H-cyclopenta[a]phenanthren-17-yl)-2-(1H-1,2,3-triazol-1-yl)propan-1-one] | < 6.30 |
| C[C@@H](C(=O)[C@H]1CC[C@H]2[C@@H]3CC[C@H]4C[C@](C)(O)CC[C@]4(C)[C@H]3CC[C@]12C)n1ccnn1 [Compound 93, (S)-1-((3R,5S,8R,9S,10S,13S,14S,17S)-3-hydroxy-3,10,13-trimethylhexadecahydro-1H-cyclopenta[a]phenanthren-17-yl)-2-(1H-1,2,3-triazol-1-yl)propan-1-one] | 6.30 to 7.00 |
| C[C@H](C(=O)[C@H]1CC[C@H]2[C@@H]3CC[C@H]4C[C@](C)(O)CC[C@]4(C)[C@H]3CC[C@]12C)n1nc2ccccc2n1 [Compound 98, (R)-2-(2H-benzo[d][1,2,3]triazol-2-yl)-1-((3R,5S,8R,9S,10S,13S,14S,17S)-3-hydroxy-3,10,13-trimethylhexadecahydro-1H-cyclopenta[a]phenanthren-17-yl)propan-1-one] | 7.00 to 7.30 |
| C[C@@H](C(=O)[C@H]1CC[C@H]2[C@@H]3CC[C@H]4C[C@](C)(O)CC[C@]4(C)[C@H]3CC[C@]12C)n1nc2ccccc2n1 [Compound 99, (S)-2-(2H-benzo[d][1,2,3]triazol-2-yl)-1-((3R,5S,8R,9S,10S,13S,14S,17S)-3-hydroxy-3,10,13-trimethylhexadecahydro-1H-cyclopenta[a]phenanthren-17-yl)propan-1-one] | 7.30 to 8.00 |
